# Source: the OligoGym collection
# After the bases stand the sugars from the 5' end (letter, count) and the backbone: PS all phosphorothioate, else s phosphorothioate and o phosphodiester by linkage. Methylation of C is not given here. l = locked nucleic acid (LNA); d = 2'-deoxy (DNA)
# Biological target: SNHG14
# Conditions: ASO, Human Neuronal Cell
Sequence,target mRNA inhibition (0.2 µM) [%],target mRNA inhibition (1 µM) [%],target mRNA inhibition (7.5 µM) [%],target mRNA inhibition (5 µM) [%]
"ATTTCATTAAGTCACCC (sugars l3 d11 l3, PS)",51,53,–,–
"ATTTCTCTATGTCACAT (sugars l3 d11 l3, PS)",31,35,–,–
"ATTTTTTTCTTACTATCTTC (sugars ldddddlddddddldddlll, PS)",–,–,43,–
"ATTTTTTTCTTACTATCTTC (sugars lddddlddddddddldldll, PS)",–,–,63,–
"ATTTTTTTCTTACTATCTTC (sugars ldlddldddddddddddlll, PS)",–,–,56,–
"ATTTTTTTCTTACTATCTTC (sugars llddldldddddddldddll, PS)",–,–,49,–
"CAAAGATCATTCTCAAC (sugars l5 d6 l1 d1 l4, PS)",–,–,22,–
"CAAAGATCATTCTCAACA (sugars l1 d4 l1 d7 l5, PS)",–,–,65,–
"CAAAGATCATTCTCAACA (sugars l3 d1 l2 d10 l2, PS)",–,–,61,–
"CAACATTATTAACCACCTT (sugars l1 d2 l1 d12 l3, PS)",–,–,53,–
"CAACATTATTAACCACCTT (sugars l2 d10 l2 d3 l2, PS)",–,–,43,–
"CAACATTATTAACCACCTT (sugars lldlldddddddddldlll, PS)",–,–,49,–
"CAACATTATTAACCACCTTA (sugars l1 d15 l4, PS)",–,–,36,–
"CAACATTATTAACCACCTTA (sugars l2 d4 l1 d11 l2, PS)",–,–,37,–
"CAACATTATTAACCACCTTA (sugars llddlddddddddddldlll, PS)",–,–,47,–
"CAACATTATTGACACT (sugars l2 d10 l4, PS)",45,61,–,–
"CAACTCTCACTGTAACT (sugars l4 d11 l2, PS)",47,49,–,–

Sequence,target mRNA inhibition (0.2 µM) [%],target mRNA inhibition (1 µM) [%],target mRNA inhibition (7.5 µM) [%],target mRNA inhibition (5 µM) [%]
"CACAATCAACAACAAATA (sugars l4 d12 l2, PS)",40,54,–,–
"CACCACTGATTTCCTT (sugars l3 d10 l3, PS)",43,53,–,–
"CACCTGATAACAGACC (sugars l3 d10 l3, PS)",-22,7,–,27
"CAGCAGGCAGATAACCTC (sugars l3 d12 l3, PS)",-4,18,–,21
"CAGCATTCAACCCTAAT (sugars l3 d12 l2, PS)",40,54,–,–
"CAGCCATAAACTATAT (sugars l4 d10 l2, PS)",15,7,–,–
"CAGCTATTCAATAAAC (sugars l4 d10 l2, PS)",8,7,–,–
"CAGCTTTTAACCAGAGTGG (sugars l1 d15 l3, PS)",–,–,69,–
"CAGCTTTTAACCAGAGTGGC (sugars l1 d17 l2, PS)",–,–,40,–
"CATATTGAACCAATTC (sugars l4 d10 l2, PS)",51,67,–,–
"CATCATATTGAACCAA (sugars l2 d10 l4, PS)",52,63,–,–
"CATCTGATCTCACACAT (sugars l4 d11 l2, PS)",29,46,–,–
"CATCTGCTACATATTCT (sugars l4 d11 l2, PS)",53,62,–,–
"CATTATATTTAAACTATCA (sugars l4 d13 l2, PS)",8,15,–,–
"CATTATTAACCACCTT (sugars l2 d10 l4, PS)",54,59,–,–
"CATTTCATATTACTAACT (sugars l3 d12 l3, PS)",10,18,–,–
"CCAAACTGTCTTCTAAT (sugars l2 d11 l4, PS)",23,26,–,–
